The test system of one assay is canine adipocytes. In words: Lipolytic activity in canine fatty cell (glycerol release). The format is cell-based, dogs. The settings on record: Canis lupus familiaris, Adipocyte; for EC50: 1 h, glycerol release, canine adipocytes, read-out: ED50 (the source's name); for Emax: read-out: Intrinsic activity (%). Here is the method: Lipolytic Activity in Canine Fatty Cell
Adipose tissues in the omentum were collected from dogs and minced and washed. Krebs-Ringer buffer solution containing 1 mg/ml Collagenase (Sigma) and 1% of bovine serum albumin was added in an amount of 3 ml per one gram of the tissue. These cells were then incubated at 37° C. for 30 minutes with shaking and then undigested tissues were removed with a nylon filter. The resulting adipocytes were washed four times with Krebs-Ringer buffer, and then the concentration of cells was diluted to 2×10^5/ml with Krebs-Ringer buffer solution containing 4% of bovine serum albumin. These cells were transferred to Eppendorf tubes each in an amount of 300 μl.
Each 300 μl of a culture medium containing the test compounds were added to these tubes and was held at 37° C. for 1 hour whith shaking. Stimulation was stoped by cooling with ice. After centrifugation, the adipocytes were taken off with an aspirator, whereupon the glycerol was determined using F-KIT GLTCEROL (Behringer-Manheim).

The next assay has as its target T1, human β3 (Homo sapiens, UniProt P13945).
T1 construct: And then full length of human β3 gene was cloned using this fragment as a probe; expressed in transfected cells; host or cells: CHO cells (Chinese hamster ovary), pcDNA3 vector
The assay is described as follows: Human β3-agonist activity (cAMP in CHO cells transfected with human β3 gene). The conditions noted are these: for Emax: CHO, read-out: Intrinsic activity (%). The format is cell-based. Here is the method:
Human β3-agonist Activity
Human β3-agonist activity was examined using CHO cells (chinese hamster ovarian cells) to which pcDNA3 (in vitrogen) cells inserted human β3 gene was transfected. Human β3 fragment was obtained by PCR using human fat tissue cDNA (supplied from Clontech) with a β3 primer [Krief et al, J. Clin. Invest.
The cells were cultured in a HAM F-12 medium containing 10% of fetal bovine serum, 400 μg/ml of Geneticin (Gibco BRL). 100 U/ml penicillin and 100 μg/ml streptomycin. 5×10^5 cells were placed on a 6-well plate and cultured for 24 hours, after which the medium was changed to a HAM F-12 medium without serum and was kept for 2 hours. Each test compound was first dissolved in DMSO, and then diluted with a HAM F-12 medium containing 1 mM isobutylmethyl xanthine and 1 mM ascorbic acid. A 10-fold dilution in the range of 10^−5 to 10^−12 M was added into the cell.
After culturing for 30 minutes, culture medium was withdrawn, 0.5 ml of 1 N NaOH was added and was kept for 20 minutes. And then 0.5 ml of 1 N acetic acid was added with subsequent agitation and centrifugation. Finally the concentration of cAMP were analyzed using cAMP EIA KIT (Cayman). […] Isoprotelenol was purchased from Research Biochimicals International.

Where [1] appears, read: cAMP, CHO cells with human β3, read-out: ED50 (the source's name).

Where a name gives a salt, the structure may show the parent alone. Read-outs that look alike come from different tables or passages of the source.

T1 sequence (P13945 whole entry, the tested form may be a part): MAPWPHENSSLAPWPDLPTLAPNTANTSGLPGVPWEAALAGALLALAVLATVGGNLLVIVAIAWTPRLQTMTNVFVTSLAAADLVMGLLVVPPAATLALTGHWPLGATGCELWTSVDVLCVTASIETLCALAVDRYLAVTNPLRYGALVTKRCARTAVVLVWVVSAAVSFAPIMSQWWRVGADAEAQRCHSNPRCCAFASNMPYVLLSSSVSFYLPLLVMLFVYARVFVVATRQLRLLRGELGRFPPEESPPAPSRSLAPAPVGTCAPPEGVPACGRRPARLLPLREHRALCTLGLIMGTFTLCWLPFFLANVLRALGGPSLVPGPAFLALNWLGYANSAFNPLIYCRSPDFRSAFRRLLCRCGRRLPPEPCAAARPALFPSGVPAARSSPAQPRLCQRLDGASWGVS

As for `CS(=O)(=O)Nc1cc(C(O)CNCCOc2ccc3c(c2)oc2ccccc23)ccc1O` (racemic) [Example 4, (±)-N-[5-[2-[2-(Dibenzofuran-3-yloxy)ethylamino]-1-hydroxyethyl]-2-hydroxyphenyl]methanesulfonamide Hydrochloride], in the assay on canine adipocytes, the EC50 is 0.7 nM and the Emax amounted to 88%. In addition, at human β3, the EC50 is 0.52 nM and the Emax was determined as 80%.

Consider `CS(=O)(=O)Nc1cccc(C(O)CNCCOc2ccc3c(c2)oc2ccccc23)c1` (racemic) [Example 9, (±)-N-[3-[2-[2-(Dibenzofuran-3-yloxy)ethylamino]-1-hydroxyethl]phenyl]methanesulfonamide Hydrochloride], for which the results for the EC50 with canine adipocytes and on human β3 (setting [1]) were 250 nM and 750 nM, respectively. Moreover, the Emax with canine adipocytes was determined as 106%; on human β3, 85%.

`CN(C)S(=O)(=O)Nc1cc(C(O)CNCCOc2ccc3c(c2)[nH]c2ccccc23)ccc1O` (racemic) [Example 25, (±)-N′-[5-[2-[2-(9H-Carbazol-2-yloxy)ethylamino]-1-hydroxyethyl]-2-hydroxyphenyl]-N,N-dimethylsulfamide Hydrochloride]: in the assay on canine adipocytes, the EC50 was 510 nM and the Emax came to 70%. In addition, at human β3, the EC50 stood at 2.1 nM and the Emax came out at 95%.

With `CS(=O)(=O)Nc1cc(C(O)CNCCOc2ccc3c(c2)sc2ccccc23)ccc1O` (racemic) [Example 38, (±)-N-[5-[2-[2-(Dibenzothiophen-3-yloxy)ethylamino]-1-hydroxyethyl]-2-hydroxyphenyl]methanesulfonamide Hydrochloride], in the assay with canine adipocytes, the EC50 stood at 2.6 nM and the Emax amounted to 103%. In addition, at human β3, the EC50 was determined as 0.006 nM and the Emax worked out at 76%.

Consider `CN(C)S(=O)(=O)Nc1cc(C(O)CNCCOc2ccc3c(c2)sc2ccccc23)ccc1O` (racemic) [Example 40, (±)-N′-[5-[2-[2-(Dibenzothiophen-3-yloxy)ethylamino]-1-hydroxyethyl]-2-hydroxyphenyl]-N, N-dimethylsulfamide Hydrochloride], for which, in the assay on canine adipocytes, the EC50 was 13 nM and the Emax came out at 92%. Also, at human β3, the EC50 amounted to 200 nM and the Emax worked out at 97%.

Turning to `CS(=O)(=O)Nc1cccc(C(O)CNCCOc2ccc3c(c2)sc2ccccc23)c1` (racemic) [Example 41, (±)-N-[3-[2-[2-(Dibenzothiophen-3-yloxy)ethlamino]-1-hydroxyethyl]phenyl]methanesulfonamide Hydrochloride], the EC50 in the assay with canine adipocytes was determined as 240 nM; on human β3 (setting [1]), 600 nM. For the same compound, the results for the Emax in the assay on canine adipocytes and on human β3 were 109% and 63%, respectively.

`CN(C)S(=O)(=O)Nc1cc(C(O)CNCCOc2ccc3c(c2)oc2ccccc23)ccc1O` (racemic) [Example 43, (±)-N′-[5-[2-[2-(Dibenzofuran-3-yloxy)ethylamino]-1-hydroxyethyl]-2-hydroxyphenyl]-N,N-dimethylsulfamide Hydrochloride]: in the assay on canine adipocytes, the EC50 turned out to be 4 nM and the Emax amounted to 77%. Further, on human β3, the EC50 turned out to be 85 nM and the Emax was 104%.

As for `CC(=O)Nc1ccc2c(c1)Cc1cc(OCCNCC(O)c3ccc(O)c(NS(C)(=O)=O)c3)ccc1-2` (racemic) [Example 50, (±)-N-[5-[2-[2-(9H-7-Acetylaminofluoren-2-yloxy)ethylamino]-1-hydroxyethyl]-2-hydroxyphenyl]methanesulfonamide Hydrochloride], the EC50 was 0.19 nM in the assay on canine adipocytes and 0.94 nM at human β3 (setting [1]). For the same compound, the Emax amounted to 112% with canine adipocytes and 85% at human β3.

Turning to `CS(=O)(=O)Nc1cc(C(O)CNCCOc2ccc3c(c2)Cc2cc(N)ccc2-3)ccc1O` (racemic) [Example 52, (±)-N-[5-[2-[2-(9H-7-Aminofluoren-2-yloxy)ethylamino]-1-hydroxyethyl]-2-hydroxyphenyl]methanesulfonamide Hydrochloride], the results for the EC50 in the assay on canine adipocytes and at human β3 (setting [1]) were 0.38 nM and 2.6 nM, respectively. Further, the results for the Emax in the assay with canine adipocytes and at human β3 were 100% and 78%, respectively.

In the case of `CC(C)S(=O)(=O)Nc1cc(C(O)CNCCOc2ccc3c(c2)[nH]c2ccccc23)ccc1O` (racemic) [Example 54, (±)-N-[5-[2-[2-(9H-Carbazol-2-yloxy)ethylamino]-1-hydroxyethyl]-2-hydroxyphenyl]-2-propanesulfonamide Hydrochloride], the EC50 in the assay on canine adipocytes came out at 25 nM; on human β3, 8.4 nM. For the same compound, the values for the Emax with canine adipocytes and at human β3 were 118% and 109%, respectively.

In the case of `OCc1cc(C(O)CNCCOc2ccc3c(c2)[nH]c2ccccc23)ccc1O` (racemic) [Example 67, (±)-2-[N-[2-(9H-Carbazol-2-yloxy)ethyl]amino]-1-[4-hydroxy-3-(hydroxymethyl)phenyl]ethanol Hydrochloride], in the assay with canine adipocytes, the EC50 amounted to 54 nM and the Emax worked out at 94%. At human β3, the EC50 stood at 28 nM and the Emax stood at 109%.

For `COC(CNCCOc1ccc2c(c1)[nH]c1ccccc12)c1ccc(N)c(NS(C)(=O)=O)c1` (racemic) [Example 92, (±)-N-[5-[2-[2-(9H-Carbazol-2-yloxy)ethylamino]-1-methoxyethyl]-2-aminophenyl]methanesulfonamide Hydrochloride], in the assay on canine adipocytes, the EC50 worked out at 1900 nM and the Emax amounted to 126%. In addition, on human β3, the EC50 was 280 nM and the Emax came to 81%.

As for `O[C@@H](CNCCOc1ccc2c(c1)[nH]c1ccccc12)c1ccccc1` [Example 32, (R)-2-[N-[2-(9H-Carbazol-2-yloxy)ethyl]amino]-1-phenylethanol Hydrochloride], in the assay with canine adipocytes, the EC50 is 290 nM and the Emax was determined as 94%. Also, at human β3, the EC50 amounted to 1600 nM and the Emax was determined as 98%.

On to `CS(=O)(=O)Nc1cc([C@@H](O)CNCCOc2ccc3c(c2)oc2ccccc23)ccc1O` [Example 69, (R)-N-[5-[2-[2-(Dibenzofuran-3-yloxy)ethylamino]-1-hydroxyethyl]-2-hydroxyphenyl]methanesulfonamide Hydrochloride], for which the values for the EC50 in the assay on canine adipocytes and on human β3 were 0.65 nM and 0.016 nM, respectively. In addition, the Emax with canine adipocytes turned out to be 107%; at human β3, 94%.

For `CC(=O)Nc1ccc2c(c1)Cc1cc(OCCNC[C@H](O)c3cccc(NS(C)(=O)=O)c3)ccc1-2` [Example 71, (R)-N-13-[2-[2-(9H-7-Acetylaminofluoren-2-yloxy)ethylamino]-1-hydroxyethyl]phenyl]methanesulfonamide Hydrochloride], the EC50 with canine adipocytes worked out at 110 nM; at human β3 (setting [1]) it was 180 nM. Besides, the Emax with canine adipocytes was 88%; on human β3 it was 97%.

Take `CS(=O)(=O)Nc1cc([C@@H](O)CNCCOc2ccc3c(c2)sc2ccccc23)ccc1O` [Example 72, (R)-N-[5-[2-[2-(Dibenzothiophen-3-yloxy)ethylamino]-1-hydroxyethyl]-2-hydroxyphenyl]methanesulfonamide Hydrochloride]: the EC50 with canine adipocytes is 0.54 nM. Further, the values for the Emax in the assay on canine adipocytes and on human β3 were 96% and 80%, respectively.

`CC(C)NCC(O)c1ccc(O)c(O)c1` (centres unmarked) [Isoproterenol, reference compound]: in the assay with canine adipocytes, the EC50 is 1.7 nM and the Emax was determined as 100%.

Source of the values: patent publication US6545053B1, “Tricyclic compounds and drug compositions containing same” (Asahi Kasei Kogyo Kabushiki Kaisha, priority 1996, dated 2003).
